Series [1] in a line: 13-week intranasal toxicity and toxicokinetics in rats. It is filed as in vivo, rat. To be noted: Crl:CD(SD), rat, in vivo, sc, 25 μg/kg/day, female rats, administered by injection (subcutaneous). As for the experimental part:
(§1) Toxicity and toxicokinetics of PTH1-34 formulations were evaluated in male and female Crl:CD(SD) rats. PTH1-34 (synthetic form) was administered once daily via intranasal instillation to rats for at least 13 weeks. For comparison, one group received commercially available recombinant PTH1-34 via subcutaneous injection. Assessment of toxicity was based on mortality, clinical observations, ophthalmic examinations, body weights, food consumption, clinical and anatomic pathology, and toxicokinetic evaluations. Two synthetic PTH1-34 formulations were used in the study, PTH-072-1 and PTH-074 at low and high doses (formulations are shown in Table 22).
(§2) Doses in rats were determined for body weight, body surface area, and nasal surface area. Representative concentrations of PTH1-34 for clinical studies were considered to be 1.5 mg/mL and 3.0 mg/mL (and a dose volume of 100 μL). For the lower concentration, a 70 kg human would receive a dose of 2.1 μg/kg based on body weight. At the higher dose a human would receive a dose of 4.3 μg/kg based on body weight.

In a further series the test system is Crl:CD(SD) rats. Described as above. It is filed as in vivo, rat. How it is done: as §1, §2
Series [2] in a line: 13-week intranasal toxicity and toxicokinetics in dogs. Type of series: in vivo. To be noted: both sexes, beagle, dog, in vivo, sc, 6 μg/kg/day; dogs, subcutaneous injection; read-out: Tmax for PTH1-34. How it is done: (§3) Toxicity and toxiokinetics of PTH1-34 was studied after administration of PTH1-34 once daily by intranasal instillation to dogs for at least 13 weeks. One additional group received recombinant PTH1-34 by subcutaneous injection for comparison.
(§4) Male and female beagles were assigned among six study groups. Animals assigned to groups 1 through 5 received an intranasal installation of a negative control (0.9% Sodium Chloride for Injection, USP), 40 or 80 μg/kg of body weight/day (μg/kg/day) PTH1-34 (synthetic form) in the PTH-072 formulation (Example 10, Table 22), or 80 or 200 μg/kg/day PTH1-34 (synthetic form) in the PTH-074-1 formulation (Example 10, Table 22).
(§5) Results were collected for mortality, clinical signs, gross nasal passage observations, ophthalmic findings, electrocardiogram measurements, blood pressure and heart rate differences, body weights, food consumption, clinical and anatomic pathology, and toxicokinetic evaluations. All animals in the study survived to scheduled necropsy. […] The nasal cavity was sectioned such that meaningful regions of the cavity were represented, and the soft (e.g., epithelial lining) or hard tissues (e.g., bone and cartilage based structures) of the nasal cavity were examined.

Another series concerns beagles. The series is described as above. Type of series: in vivo. As for the experimental part:
as §3, §4, §5

For the next series, the system named is MatTek in vitro system. The series is described as follows: Chlorobutanol permeation study of API formulations (PTH, Calcitonin), MatTek in vitro system, ELISA. It is filed as cell-based. The following applies: CB 0-5 mg/mL. How it is done:
Chlorobutanol (CB) was added to API formulations (PTH and Calcitonin) to test permeation in the MatTek in vitro system. CB was tested at varying concentrations (0, 1.25, 2.5, 3.75 and 5 mg/mL) in 10 mM citrate buffer, pH 4.0 and adjusted for a final target osmolality of 220 mOsm with sorbitol. Calcitonin and PTH were added at 2 mg/mL in each of the respective control or test formulations (n=6 insert per formulation). 1 mL of each formulation was placed into silanized 3 cc vials. A 0.1 mL volume of a 20× stock of one of the API compounds was added to 0.9 mL of 1.1× concentrated diluent form of each of the CB formulations to make the unique formulations.
(An ELISA detects its analyte on a solid surface through an enzyme-linked reagent.)

The subject of series [3] is EpiAirway Tissue Model (normal, human-derived tracheal/bronchial epithelial cells). The series is described as follows: Transepithelial electrical resistance (TER), MatTek cell model (Examples 1-2). It is filed as cell-based. The following applies: 1-h incubation, apical application. How it is done: The effect of various permeation enhancers on PTH formulations was measured in a MatTek cell model (MatTek, Corp. Ashland, Mass.). Three permeation enhancers (EDTA, ethanol, and polysorbate 80 (Tween 80)) were evaluated individually and in combination with one another. Sorbitol was used as a tonicifiers to adjust the osmolality of formulations to 220 mOsm/kg whenever applicable. The formulation pH was adjusted to ˜4.0. The permeation enhancer combination of 45 mg/ml Me-β-CD, 1 mg/ml DDPC, and 1 mg/ml EDTA at pH 4.5 served as the positive control. The formulation containing sorbitol only was used as the negative control. Each formulation was evaluated in the presence and absence of preservative. […]
Each tissue insert was placed in an individual well containing 1 ml media. […] Transepithelial electrical resistance (TER) was measured before and after the 1-h incubation. Following the incubation, the cell inserts were analyzed for cell viability via the mitochondrial dehydrogenase (MDH) assay.
TER measurements were accomplished using the Endohm-12 Tissue Resistance Measurement Chamber connected to the EVOM Epithelial Voltammeter (World Precision Instruments, Sarasota, Fla.) with the electrode leads. […] The background resistance was measured with 1.5 ml Media in the Endohm tissue chamber and 300 μl Media in the blank insert. […] Resistance was expressed as (resistance measured−blank)×0.6 cm^2. […]

Series [4] shares this test system. The series is described as follows: Cell viability, MTT assay (Example 3). It is filed as cell-based. To be noted: after 1-h incubation. As for the experimental part: (§6) Each tissue insert was placed in an individual well containing 1 ml media. On the apical surface of the inserts, 100 μl of test formulation was applied, and the samples were shaken for 1 h at 37° C. The underlying culture media samples were taken at 20, 40, and 60 minutes and stored at 4° C. for up to 48 hours for lactate dehydrogenase (LDH, cytotoxicity) and sample penetration (PTH HPLC evaluations). The 60-min samples were used for the lactate dehydrogenase (LDH, cytotoxicity) assay. Transepithelial electrical resistance (TER) was measured before and after the 1-h incubation. Following the incubation, the cell inserts were analyzed for cell viability via the mitochondrial dehydrogenase (MDH) assay.
Cell viability was assessed using the MTT assay (MTT-100, MatTek kit). Thawed and diluted MTT concentrate was pipetted (300 μl) into a 24-well plate. Tissue inserts were gently dried, placed into the plate wells, and incubated at 37° C. for 3 hours. After incubation, each insert was removed from the plate, blotted gently, and placed into a 24-well extraction plate. The cell culture inserts were immersed in 2.0 ml of the extractant solution per well (to completely cover the sample). The extraction plate was covered and sealed to reduce evaporation of extractant. […] The optical density of the samples was measured at 550 nm on a plate reader.
In general terms: Formazan colour is commonly taken as a measure of viable cells.

The test system is the same in series [5]. The series is described as follows: Cytotoxicity, LDH assay (Example 3). To be noted: 60-min samples. It is filed as cell-based. As for the experimental part: as §6
The amount of cell death was assayed by measuring the loss of lactate dehydrogenase (LDH) from the cells using a CytoTox 96 Cytoxicity Assay Kit (Promega Corp., Madison, Wis.). LDH analysis of the apical media was evaluated. The appropriate amount of media was added to the apical surface in order to total 250 μL, taking into consideration the initial sample loading volume. The inserts was shaken for 5 minutes. 150 μL of the apical media was removed to eppendorf tubes and centrifuged at 10000 rpm for 3 minutes. […] Following incubation, 50 μl of stop solution was added to each well and the plates read on an optical density plate reader at 490 nm.

For series [6] the following is noted: anesthetized rats, cited from earlier work.

Read-outs that look alike come from different tables or passages of the source. Ends that are not written are not given here.

Data on 4 molecules can be found in patent publication US20080119408A1, “PTH FORMULATIONS FOR INTRANASAL DELIVERY” (NASTECH PHARMACEUTICAL COMPANY INC., priority 2006, published 2008).

By Cmax is commonly meant the highest concentration seen after dosing. The term Tmax denotes the time at which the peak concentration occurs.

As for `CC[C@H](C)[C@H](NC(=O)[C@H](CCC(=O)O)NC(=O)[C@H](CO)NC(=O)[C@@H](NC(=O)[C@@H](N)CO)C(C)C)C(=O)N[C@@H](CCC(N)=O)C(=O)N[C@@H](CC(C)C)C(=O)N[C@@H](CCSC)C(=O)N[C@@H](Cc1cnc[nH]1)C(=O)N[C@@H](CC(N)=O)C(=O)N[C@@H](CC(C)C)C(=O)NCC(=O)N[C@@H](CCCCN)C(=O)N[C@@H](Cc1cnc[nH]1)C(=O)N[C@@H](CC(C)C)C(=O)N[C@@H](CC(N)=O)C(=O)N[C@@H](CO)C(=O)N[C@@H](CCSC)C(=O)N[C@@H](CCC(=O)O)C(=O)N[C@@H](CCCN=C(N)N)C(=O)N[C@H](C(=O)N[C@@H](CCC(=O)O)C(=O)N[C@@H](Cc1c[nH]c2ccccc12)C(=O)N[C@@H](CC(C)C)C(=O)N[C@@H](CCCN=C(N)N)C(=O)N[C@@H](CCCCN)C(=O)N[C@@H](CCCCN)C(=O)N[C@@H](CC(C)C)C(=O)N[C@@H](CCC(N)=O)C(=O)N[C@@H](CC(=O)O)C(=O)N[C@H](C(=O)N[C@@H](Cc1cnc[nH]1)C(=O)N[C@@H](CC(N)=O)C(=O)N[C@@H](Cc1ccccc1)C(=O)O)C(C)C)C(C)C` [PTH1-34, teriparatide], in series [1], the Cmax was 7.72 to 12.2 ng/mL and the Tmax is 5 min. Besides, in series [1] (read-out: t1/2 for PTH1-34), the half-life is 15 to 23 min. For the same molecule, the “trabecular bone in femur and sternum” value with Crl:CD(SD) rats (female rats, 25 μg/kg/day SQ, 200 μg/kg/day PTH-072-1, 500 μg/kg/day PTH-074-1 intranasally) is reported as “thickened trabecular bone”. Moreover, in the series with Crl:CD(SD) rats (rats, 13 weeks intranasal), the “changes in nasal turbinate tissues” value is listed as “No changes considered to be attributable to the intranasal administration of PTH1-34 were observed”. In the series on Crl:CD(SD) rats (rats, 13 weeks, regardless of route, dose level or formulation), the “clinical signs, ophthalmic observations, body weight, food consumption” value is reported as “No PTH1-34 related clinical signs, ophthalmic observations, body weight changes, or food consumption changes were observed”. In [2], the Tmax is 13 to 26 min. Moreover, in the series on beagles (dog, in vivo), the “histologic changes in nasal tissues” value is on record as “no histologic changes in nasal tissues”. Moreover, in the series on beagles (dogs dosed subcutaneously or intranasally at the high dose), the “trabecular bone in femur and sternum” value is “minimally thickened trabecular bone”. In addition, in the series on beagles (dogs vs humans), the “AUClast greater in the dog than in humans at representative doses” value is at least 10 fold and the “Cmax greater in the dog than in humans at representative doses” value is listed as “at least 7 fold”. The “clinical signs, ophthalmic findings, ECG, blood pressure, heart rate, body weights, food consumption” value in the series on beagles (dogs, 13 weeks) is “No PTH1-34 related clinical signs, ophthalmic findings, electrocardiogram differences, blood pressure and heart rate differences, body weights, or food consumption changes were noted”. Moreover, the “effect of addition of CB on permeation of the API” value in the series on MatTek in vitro system is “enhanced permeation”.
For the molecule Triton X, the TER reduction entry in [3] is reported as “significant TER reduction”. Also, the “cell viability (MTT)” value in series [4] is reported as “significant reduction of cell viability”. Also, the “cytotoxicity (LDH)” value in series [5] is on record as “significant cytotoxicity”.
Regarding “Calcitonin (CGNLSTCMLGTYTQDFNKFHTFPQTAIGVGAP; ends and bridges not checked; cysteine pairing not given here; UniProt P01258 85-116, looked up) [peptide API tested for CB permeation enhancement]”, the “effect of addition of CB on permeation of the API” value in the series on MatTek in vitro system was “failed to enhance permeation”.
For “human growth hormone: protein whose nasal bioavailability in rats was reported raised by N-acetyl-L-cysteine”, the “nasal bioavailability of human growth hormone” value in series [6] (with N-acetyl-L-cysteine) was 12.2%; in series [6] (without N-acetyl-L-cysteine), 7.5%.
